Assay results: patent publication US8497276B2, “Substituted indolo-piperidine compounds” (ArQule, Inc., priority 2009, dated 2013)

What was measured:
Tec kinase = target: T1, Tec kinase (Homo sapiens, UniProt P42680); assay: Tec Kinase Activity Assay; format: biochemical; details: 75 μM ATP, Pyk-2 substrate; compound concentration not given
T1 sequence (P42680 1-631): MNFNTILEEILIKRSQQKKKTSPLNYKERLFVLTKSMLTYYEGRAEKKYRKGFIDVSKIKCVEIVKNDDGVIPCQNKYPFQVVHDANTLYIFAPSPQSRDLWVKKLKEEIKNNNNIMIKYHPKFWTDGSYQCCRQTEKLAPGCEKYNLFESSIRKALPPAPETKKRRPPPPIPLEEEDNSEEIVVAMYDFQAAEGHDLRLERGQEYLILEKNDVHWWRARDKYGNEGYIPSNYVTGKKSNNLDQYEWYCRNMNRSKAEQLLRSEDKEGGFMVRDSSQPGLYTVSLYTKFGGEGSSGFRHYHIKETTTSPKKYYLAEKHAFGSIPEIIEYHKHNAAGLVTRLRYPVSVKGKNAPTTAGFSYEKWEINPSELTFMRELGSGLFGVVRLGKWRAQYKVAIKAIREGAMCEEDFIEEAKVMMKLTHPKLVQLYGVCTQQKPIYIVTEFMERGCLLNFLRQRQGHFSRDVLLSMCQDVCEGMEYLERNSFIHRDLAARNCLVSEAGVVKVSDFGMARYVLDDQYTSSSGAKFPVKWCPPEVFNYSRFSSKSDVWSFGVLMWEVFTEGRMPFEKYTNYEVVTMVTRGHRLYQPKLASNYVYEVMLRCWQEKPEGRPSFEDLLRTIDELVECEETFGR
Method: The disclosed compounds were assayed for their ability to inhibit the activity of Tec kinase. Nunc Maxisorb plates were coated with streptavidin by overnight incubation with 100 μl per well of 1 μg/ml Streptavidin in DPBS. Prior to the start of the experiment, the plates were washed with TBST (3×200 μl) and blocked for at least 1 hour by adding 150 μl of 5% BSA/TBST. The plates were then washed with TBST (3×200 μl/well) and left dry immediately before the capture step.
The disclosed test compounds and controls (Staurosporine and Sutent) were prepared using the following assay buffer (50 mM Tris-HCl, 0.02 mg/ml BSA, 10 mM MgCl2, 0.1 mM Na3VO4, 1 mM EGTA, 75 μM ATP, 0.01% NP-40, 2 mM DTT in 10% glycerol/water) at 3× desired final concentration. 20 μl of the test compounds (or control) and 20 μl TEC (0.25 ng/μl) were rapidly added to a reaction plate. The plate was incubated for 30 minutes. 20 μl of Pyk-2 (0.5 ng/μl) was then added to the reaction plate. The plate was incubated at room temperature for two hours.
50 μl was transferred from the reaction plate to the streptavidin coated plate. The capture plate was incubated at room temperature for 30 minutes then washed with TBST 6 times. 100 μl/well of Cell Signaling anti-phospho tyrosine was added to the capture plate at a dilution of 1:3000 in 2% BSA/TBST. The plate was incubated for one hour at room temperature then washed with TBST 6 times. 100 μl/well of alkaline phosphatase tagged goat anti-mouse antibody was added to the capture plate at a dilution of 1:4000 in 2% BSA/TBST. The plate was incubated for one hour at room temperature then washed with TBST 6 times.
The fluorescent readout was initiated by the addition of 100 μl/well of Attophos reagent (6 mg/10 ml) and the reading was done on the Perkin Elmer Envision system.

DLD-1 = assay: MTS Assay (cell growth inhibition), DLD-1; format: cell-based; details: DLD-1 cells, 72 hours with test compound; concentration not given
Method: (§1) Cells were maintained at 37° C., 5% CO2 in DMEM media supplemented with 1% fetal bovine serum, penicillin/streptomycin and fungizone (Invitrogen). Cells were seeded into 96-well tissue culture plates at 3000 per well and cultured at 37° C. for 18 hours. Test compounds were dissolved and diluted to 300× in DMSO then diluted 1:40 in DMEM. Cells were incubated with test compounds for 72 hours followed by incubation with tetrazolium compound (3-(4,5-dimethylthiazol-2-yl)-5-(3-carboxymethoxyphenyl)-2-(4-sulfophenyl)-2H-tetrazolium, inner salt; MTS) and the electron coupling reagent, phenazine methosulfate (PMS) for 4 hours. […] The ability of compounds to inhibit cell growth in this assay is correlated with the reduction of dehydrogenase enzyme activity found in metabolically active cells. The measurement of the absorbance of the formazan was assessed using an ENVISION™ (Perkin Elmer) microplate reader at 492 nm. The calculated IC50 value is the concentration of the test compound that causes a 50% decrease in the absorbance.

Kato III = assay: MTS Assay (cell growth inhibition), Kato III; format: cell-based; details: Kato III cells, 72 hours with test compound; concentration not given
Method: as §1

MDA-MB 231 = assay: MTS Assay (cell growth inhibition), MDA-MB 231; format: cell-based; details: MDA-MB 231 cells, 72 hours with test compound; concentration not given
Method: as §1

NCI-H1299 = assay: MTS Assay (cell growth inhibition), NCI-H1299; format: cell-based; details: NCI-H1299 cells, 72 hours with test compound; concentration not given
Method: as §1

PACA-2 = assay: MTS Assay (cell growth inhibition), PACA-2; format: cell-based; details: PACA-2 cells, 72 hours with test compound; concentration not given
Method: as §1

PC-3 = assay: MTS Assay (cell growth inhibition), PC-3; format: cell-based; details: PC-3 cells, 72 hours with test compound; concentration not given
Method: as §1

| SMILES | Biochemical IC50 (% inhibition) Tec (Tec kinase) | MTS cell kill data (% inhibition) DLD-1 (DLD-1) | MTS cell kill data (% inhibition) Kato III (Kato III) | MTS cell kill data (% inhibition) MDA-MB 231 (MDA-MB 231) | MTS cell kill data (% inhibition) NCI-H1299 (NCI-H1299) | MTS cell kill data (% inhibition) PACA-2 (PACA-2) | MTS cell kill data (% inhibition) PC-3 (PC-3) |
| --- | --- | --- | --- | --- | --- | --- | --- |
| CC(C)c1ccc(C2c3[nH]c4ccccc4c3CCN2c2ncnc3[nH]ncc23)cc1 (stereo not drawn) [Compound 21, 1-(4-isopropylphenyl)-2-(1H-pyrazolo[3,4-d]pyrimidin-4-yl)-2,3,4,9-tetrahydro-1H-beta-carboline] | B (B = 50-79% inhibition) | A (A = 80-100% inhibition) | A (A = 80-100% inhibition) | A (A = 80-100% inhibition) | A (A = 80-100% inhibition) | A (A = 80-100% inhibition) | B (B = 50-79% inhibition) |
| COc1ccc(C2c3[nH]c4ccccc4c3CCN2c2ncnc3[nH]ccc23)cc1OC (stereo not drawn) [Compound 22, 1-(3,4-dimethoxyphenyl)-2-(7H-pyrrolo[2,3-d]pyrimidin-4-yl)-2,3,4,9-tetrahydro-1H-beta-carboline] | C (C = <50% inhibition) | B (B = 50-79% inhibition) | B (B = 50-79% inhibition) | C (C = <50% inhibition) | B (B = 50-79% inhibition) | B (B = 50-79% inhibition) | C (C = <50% inhibition) |
| COc1ccc(C2c3[nH]c4ccccc4c3CCN2c2ncnc3[nH]cnc23)cc1OC (stereo not drawn) [Compound 23, 1-(3,4-dimethoxyphenyl)-2-(9H-purin-6-yl)-2,3,4,9-tetrahydro-1H-beta-carboline] | C (C = <50% inhibition) | B (B = 50-79% inhibition) | B (B = 50-79% inhibition) | C (C = <50% inhibition) | B (B = 50-79% inhibition) | B (B = 50-79% inhibition) | C (C = <50% inhibition) |
| c1ccc(C2c3[nH]c4ccccc4c3CCN2c2ncnc3[nH]ccc23)cc1 (stereo not drawn) [Compound 24, 1-phenyl-2-(7H-pyrrolo[2,3-d]pyrimidin-4-yl)-2,3,4,9-tetrahydro-1H-beta-carboline] | B (B = 50-79% inhibition) | B (B = 50-79% inhibition) | B (B = 50-79% inhibition) | C (C = <50% inhibition) | B (B = 50-79% inhibition) | B (B = 50-79% inhibition) | C (C = <50% inhibition) |
| c1ccc(C2c3[nH]c4ccccc4c3CCN2c2ncnc3[nH]cnc23)cc1 (stereo not drawn) [Compound 25, 1-phenyl-2-(9H-purin-6-yl)-2,3,4,9-tetrahydro-1H-beta-carboline] | C (C = <50% inhibition) | B (B = 50-79% inhibition) | B (B = 50-79% inhibition) | C (C = <50% inhibition) | B (B = 50-79% inhibition) | B (B = 50-79% inhibition) | C (C = <50% inhibition) |

Further lines, with some results ahead:

| Biochemical IC50 (% inhibition) Tec (Tec kinase) | SMILES | MTS cell kill data (% inhibition) DLD-1 (DLD-1) | MTS cell kill data (% inhibition) Kato III (Kato III) | MTS cell kill data (% inhibition) MDA-MB 231 (MDA-MB 231) | MTS cell kill data (% inhibition) NCI-H1299 (NCI-H1299) | MTS cell kill data (% inhibition) PACA-2 (PACA-2) | MTS cell kill data (% inhibition) PC-3 (PC-3) |
| --- | --- | --- | --- | --- | --- | --- | --- |
| C (C = <50% inhibition) | c1ccc(C2c3[nH]c4ccccc4c3CCN2c2ncnc3[nH]ncc23)cc1 (stereo not drawn) [Compound 26, 1-phenyl-2-(1H-pyrazolo[3,4-d]pyrimidin-4-yl)-2,3,4,9-tetrahydro-1H-beta-carboline] | B (B = 50-79% inhibition) | B (B = 50-79% inhibition) | C (C = <50% inhibition) | B (B = 50-79% inhibition) | B (B = 50-79% inhibition) | C (C = <50% inhibition) |
| B (B = 50-79% inhibition) | c1ccc(CCC2c3[nH]c4ccccc4c3CCN2c2ncnc3[nH]cnc23)cc1 (stereo not drawn) [Compound 27, 1-(2-phenylethyl)-2-(9H-purin-6-yl)-2,3,4,9-tetrahydro-1H-beta-carboline] | A (A = 80-100% inhibition) | A (A = 80-100% inhibition) | A (A = 80-100% inhibition) | A (A = 80-100% inhibition) | A (A = 80-100% inhibition) | A (A = 80-100% inhibition) |
| C (C = <50% inhibition) | Nc1nc(N2CCc3c([nH]c4ccccc34)C2CCc2ccccc2)c2nc[nH]c2n1 (stereo not drawn) [Compound 28, 6-[1-(2-phenylethyl)-1,3,4,9-tetrahydro-2H-beta-carbolin-2-yl]-9H-purin-2-amine] | B (B = 50-79% inhibition) | C (C = <50% inhibition) | C (C = <50% inhibition) | B (B = 50-79% inhibition) | C (C = <50% inhibition) | C (C = <50% inhibition) |
| C (C = <50% inhibition) | COc1ccc(C2c3[nH]c4ccccc4c3CCN2c2ncnc3[nH]cnc23)cc1 (stereo not drawn) [Compound 29, 1-(4-methoxyphenyl)-2-(9H-purin-6-yl)-2,3,4,9-tetrahydro-1H-beta-carboline] | B (B = 50-79% inhibition) | B (B = 50-79% inhibition) | C (C = <50% inhibition) | B (B = 50-79% inhibition) | B (B = 50-79% inhibition) | C (C = <50% inhibition) |
| C (C = <50% inhibition) | COc1ccc(C2c3[nH]c4ccccc4c3CCN2c2ncnc3[nH]ccc23)cc1 (stereo not drawn) [Compound 30, 1-(4-methoxyphenyl)-2-(7H-pyrrolo[2,3-d]pyrimidin-4-yl)-2,3,4,9-tetrahydro-1H-beta-carboline] | B (B = 50-79% inhibition) | A (A = 80-100% inhibition) | A (A = 80-100% inhibition) | B (B = 50-79% inhibition) | B (B = 50-79% inhibition) | A (A = 80-100% inhibition) |
